These results are taken from patent US11034672B1, “Tyrosine kinase inhibitor compositions, methods of making and methods of use” (Black Diamond Therapeutics, Inc., priority 2018, dated 2021).

For assay [1], the target named is T1, EGFR-Exon 20 insertion SVD (EGFR-SVD) (Homo sapiens, UniProt P00533, DUP768-770).
T1 construct: expressed in transfected cells; host or cells: BaF3 (murine pro-B), retroviral pMXs-IRES-Blasticidin
Briefly: BaF3 panel Cell Titer Glo proliferation, EGFR-SVD (Example 3). In kind it is cell-based. The conditions noted are these: BaF3 transformant, 72 hours, FIG. 21. The method, then: To determine the ability of Compound No. 6 to target wild type HER2, wild type EGFR, and relevant mutants of each, a panel of BaF3 cell lines and the A431 cell line were dosed and assessed in cell proliferation assays. The BaF3 parental cell line is normally dependent on IL-3 for proliferation, but when transformed with active tyrosine kinase can grow in the absence of IL-3. However, when transformed kinase activity is inhibited by a targeted small molecule the associated proliferation is reduced in proportion to the extent of inhibition. A panel of BaF3 cell lines were generated by transforming the parental BaF3 cell line with wild type HER2 (HER2-WT), HER2 S310F (HER2-S310F), HER2 Exon 20 insertion YVMA (HER2-YVMA), EGFR-Exon 20 insertion ASV (EGFR-ASV), EGFR-Exon 20 insertion SVD (EGFR-SVD), or EGFR-Exon 20 insertion NPH (EGFR-NPH). The A431 […] cell line, which natively expresses WT-EGFR, was used to assess WT-EGFR inhibition. […] Proliferation was assessed using the Cell Titer Glo cell proliferation kit (Promega # G7573). […] Cell Titer Glo was added to plated cells at 15 ul per well, the plate was shaken for 20 minutes at room temperature, and luminescence was measured using Victor X3 Multimode plate reader (Perkin Elmer), Cell Titer Glo readings were taken following 72 hours (T72) after addition of Compound No. 6. […]
In general terms: In ATP-based viability assays light output follows the ATP content of the culture.

For assay [2], the system named is EGFR mutants (EGFR-ASV, EGFR-NPH) over wild type EGFR. Briefly: Relative selectivity, GI50 in A431 versus CUTO-14 and CUTO-17 (Example 5). The conditions noted are these: 72 hours, FIG. 23. In kind it is cell-based. The method, then: A shown in the top panel of FIG. 23, marketed compounds that target EGFR mutants show off-target binding to wild type EGFR, resulting in toxicities and reduced efficacy (FIG. 23, top panel). […] Following dosing, the cells were assessed for EGFR mutant signaling and cell proliferation. To measure signaling, the pERK AlphaLisa (Perkin Elmer # ALSU-PERK-A10K) was used to quantify phosphorylation of ERK1/2 (Thr202/Tyr204) in all treated cells. Cell proliferation was determined using the Cell Titer Glo assay (Promega G7573) at 72 hours following treatment. IC50 values for both pERK and growth inhibition (GI50) were determined (FIG. 23, bottom table). […] The ratio of the GI50 value in A431 cells to the GI50 in CUTO-14 and the ratio of the GI50 value in A431 cells to the GI50 in CUTO-17 was calculated (FIG. 23, bottom table). Higher ratios represent higher selectivity for the EGFR mutants compared to EGFR-WT.

Broadly, the IC50 is the concentration that gives 50% inhibition.

Each structure is given as a SMILES string.

T1 sequence (P00533 with tags, fused parts or gaps DUP768-770): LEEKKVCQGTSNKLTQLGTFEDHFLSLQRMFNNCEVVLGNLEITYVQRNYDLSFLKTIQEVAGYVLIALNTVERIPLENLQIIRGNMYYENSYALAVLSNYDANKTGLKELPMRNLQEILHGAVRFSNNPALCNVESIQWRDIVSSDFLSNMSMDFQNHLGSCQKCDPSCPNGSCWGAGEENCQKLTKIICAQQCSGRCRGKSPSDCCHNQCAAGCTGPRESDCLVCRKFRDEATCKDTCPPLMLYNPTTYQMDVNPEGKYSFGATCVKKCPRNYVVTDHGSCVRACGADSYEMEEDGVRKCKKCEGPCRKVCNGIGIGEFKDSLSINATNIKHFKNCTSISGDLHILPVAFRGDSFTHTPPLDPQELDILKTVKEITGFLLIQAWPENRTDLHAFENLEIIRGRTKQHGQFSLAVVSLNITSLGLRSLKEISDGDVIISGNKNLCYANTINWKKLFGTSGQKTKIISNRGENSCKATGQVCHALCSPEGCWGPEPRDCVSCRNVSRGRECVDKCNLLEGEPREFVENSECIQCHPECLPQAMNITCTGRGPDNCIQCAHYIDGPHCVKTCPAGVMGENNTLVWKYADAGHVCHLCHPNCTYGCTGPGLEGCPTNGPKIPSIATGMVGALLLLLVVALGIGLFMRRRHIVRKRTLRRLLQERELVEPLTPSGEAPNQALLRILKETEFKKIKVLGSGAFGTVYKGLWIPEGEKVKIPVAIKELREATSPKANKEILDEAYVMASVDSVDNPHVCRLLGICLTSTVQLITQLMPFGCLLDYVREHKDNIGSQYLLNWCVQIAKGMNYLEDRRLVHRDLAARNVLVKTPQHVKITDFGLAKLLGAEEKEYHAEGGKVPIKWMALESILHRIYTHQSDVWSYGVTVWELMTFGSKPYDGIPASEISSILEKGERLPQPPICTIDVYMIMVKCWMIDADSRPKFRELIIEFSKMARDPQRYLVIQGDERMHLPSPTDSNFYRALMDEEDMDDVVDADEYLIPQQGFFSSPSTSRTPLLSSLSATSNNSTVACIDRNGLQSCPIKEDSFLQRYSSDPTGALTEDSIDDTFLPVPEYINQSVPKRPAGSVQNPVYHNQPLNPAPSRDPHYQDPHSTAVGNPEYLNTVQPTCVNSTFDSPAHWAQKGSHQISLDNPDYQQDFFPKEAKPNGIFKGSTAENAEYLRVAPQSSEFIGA

Consider `C=CC(=O)Nc1cc2c(Nc3cc(Cl)c(OCc4cccc(F)c4)cc3F)ncnc2cc1OCCN1CCOCC1` [compound 6], for which the IC50 in assay [1] was < 100 nM.

As for `C=CC(=O)Nc1cc2c(Nc3ccc(OCc4ccccn4)c(Cl)c3)ncnc2cc1OCCN1CCOCC1` [compound 8], the “Selectivity for EGFR mutants over EGFR-WT (ratio of GI50 in A431 to GI50 in CUTO-14 / CUTO-17) compared to marketed EGFR inhibitors” value in assay [2] is reported as “reduced off-target binding to EGFR-WT relative to the marketed inhibitors”.
